A short description of data set [1]: Solubility (Table A). The format is physicochemical. The following applies: solvents in which the compound is soluble.
The subject of data set [2] is NOD mice. Description: Hypoglycemic effect in non-obese diabetic (NOD) mice. The format is in vivo, mouse. The following applies: daily oral administration, treatment mode, vs vehicle; FIG. 5. On the procedure:
The hypoglycemic effect of Compound 2 (water-soluble analog of A1) was evaluated in the treatment mode in non-obese diabetic (NOD) mice.

The subject of data set [3] is septic shock. The following applies: background statement; cited from earlier work.
Data set [4] deals with mitogen stimulated splenic T cells. Put plainly: T cell proliferation induced by IL 2. The format is cell-based, mouse. The following applies: stimulated with 1 U/ml IL 2.
Data set [5] deals with IL 12 secretion by splenic macrophages. Description: IL 12 secretion by LPS-stimulated splenic macrophages. Type of data set: cell-based. The following applies: mouse splenic macrophages, 5 ug/ml LPS, varying doses, 72 hr; FIG. 1A. On the procedure:
The effects of these three tyrphostins on the secretion of pro-inflammatory cytokines from macrophages were compared. Mouse splenic macrophages were stimulated with 5 ugh/ml lipopolysaccharide (LPS) and treated with varying doses of tyrphostins. The cells were cultured for 72 hr and the amount of IL 12 and nitric oxide was measured. […] Similar results were obtained with respect to nitric oxide levels, with tyrphostin A1 (FIG. 1B) showing good results.

For data set [6], the system named is mitogen stimulated splenic T cells. Put plainly: T cell proliferation induced by IL 12. The format is cell-based, mouse. The note with it: stimulated with 10 U/ml IL 12.
Data set [7] relates to leukemic cells. The following applies: acute lymphoblastic leukemia; background statement; cited from earlier work.

Entries after “also recorded” stand apart in the source; their conditions may differ.

`N#CC(C#N)=Cc1ccc(C(=O)[O-])cc1.[Na+]` [Compound 2, Sodium 1-cyano-3-(4-carboxy-phenyl)-acrylonitrile]: the SOLUBILITY entry in data set [1] is recorded as “Water”. Moreover, the “effect on blood glucose level” value in data set [2] is “significant effect on blood glucose level; also recorded: lowering blood glucose level”.
For the molecule `N#CC(C#N)=Cc1ccc(OCC(=O)[O-])cc1.[Na+]` [Compound 5], in data set [1], the SOLUBILITY result is “Water”.
The same measure, in the same setting: in the case of `CCOC(=O)COc1ccc(C=C(C#N)C#N)cc1` [Compound 6] it was “Chloroform Ethanol (warm)”.
The same measure, in the same setting: in the case of `N#CC(C#N)=Cc1ccc(O)cc1` [Compound 7] it was “Ethanol Acetone”.
For the molecule `N#CC(C#N)=Cc1ccc([N+](=O)[O-])c(O)c1` [Tyrphostin A10], the “protection in septic shock” value in data set [3] was “protective in septic shock”. For the same molecule, the “inhibition of T cell proliferation” value in data set [4] and in data set [6] was “did not show any significant inhibition” in each case. In data set [5], the “inhibition of IL 12 secretion” value was “inhibited IL 12 production”.
Turning to `N#C/C(=C\c1ccc(O)c(O)c1)C(=O)NCc1ccccc1` [Tyrphostin B42], the “inhibition of T cell proliferation” value in data set [4] and in data set [6] was “inhibited T cell proliferation” each time. The “inhibition of IL 12 secretion” value in data set [5] is “inhibited IL 12 production”. Moreover, in data set [7], the “prevention of growth of leukemic cells” value was “effective in preventing the growth of leukemic cells”.
